Values quoted from earlier work, collected in patent publication US8338346B2, “Perfume compositions comprising functional perfume components” (The Procter & Gamble Company, priority 2008, dated 2012).

Key:
[1] = odor detection threshold; approximate reported values
[2] = approximate reported values; unit inferred

| SMILES | ODT [1] | Vapor pressure [2] |
| --- | --- | --- |
| C=C(C)C1CC=C(C)CC1 [D-Limonene, 1-methyl-4-isopropenyl-1-cyclohexene] | 204 ppb | – |
| CC(=O)OCCCCCCC(C)C [Iso-Nonyl Acetate, iso-nonyl acetate] | 12 ppb | 0.11 mmHg |
| C=CC(C)(O)CCC=C(C)C (centres unmarked) [Linalool, 3-hydroxy-3,7-dimethyl-1,6 octadiene] | 22 ppb | 0.05 mmHg |
